US9586928B2 (The Scripps Research Institute, priority 2011, dated 2017)

How the values were obtained:
RORα = target: T1, RORα (Homo sapiens, UniProt P35398); experiment: Gal4-RORα LBD / UAS luciferase cotransfection assay; format: cell-based; details: 10 μM
T1 construct: expressed in transfected cells; host or cells: HEK293T
T1 sequence (P35398 272-510 limits assumed): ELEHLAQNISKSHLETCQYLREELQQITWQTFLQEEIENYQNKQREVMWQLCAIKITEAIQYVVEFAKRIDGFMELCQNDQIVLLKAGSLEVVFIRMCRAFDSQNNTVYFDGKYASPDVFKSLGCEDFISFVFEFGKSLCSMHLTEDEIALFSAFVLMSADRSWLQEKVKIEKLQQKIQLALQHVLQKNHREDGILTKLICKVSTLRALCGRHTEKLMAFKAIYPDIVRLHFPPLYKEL
Experimental: (§1) The cells were treated with either DMSO or various compounds as indicated four hours after replating. Following additional 20 hour incubation, luciferase levels were assayed by one-step addition of 20 μL BriteLite (Perkin Elmer) and read using an Envision multilabel plate reader (Perkin Elmer).
Cotransfection assays were performed as previously described in HEK293 cells (Gal4 cotransfection assay or IL-17 luciferase reporter)[8]. HEK293 and the mouse lymphoma EL4 (ATCC) cells were maintained in DMEM supplemented with 10% FBS plus antibiotics (penicillin and streptomycin; Invitrogen).

RORγ = target: T2, RORγ (Homo sapiens, UniProt P51449); experiment: Gal4-RORγ LBD / UAS luciferase cotransfection assay; format: cell-based; details: 10 μM
T2 construct: expressed in transfected cells; host or cells: HEK293T
T2 sequence (P51449 269-508 limits assumed): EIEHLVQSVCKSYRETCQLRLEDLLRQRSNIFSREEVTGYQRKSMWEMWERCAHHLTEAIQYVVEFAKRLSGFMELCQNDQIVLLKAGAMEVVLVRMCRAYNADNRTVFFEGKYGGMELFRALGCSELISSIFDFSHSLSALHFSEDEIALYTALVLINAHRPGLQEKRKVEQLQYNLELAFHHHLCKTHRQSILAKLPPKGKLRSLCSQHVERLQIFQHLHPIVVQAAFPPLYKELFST

LXR = target: T3, LXR (Homo sapiens, UniProt Q13133); experiment: Gal4-LXRα / UAS luciferase cotransfection assay; format: cell-based; details: 10 μM
T3 sequence (Q13133 209-447 limits assumed): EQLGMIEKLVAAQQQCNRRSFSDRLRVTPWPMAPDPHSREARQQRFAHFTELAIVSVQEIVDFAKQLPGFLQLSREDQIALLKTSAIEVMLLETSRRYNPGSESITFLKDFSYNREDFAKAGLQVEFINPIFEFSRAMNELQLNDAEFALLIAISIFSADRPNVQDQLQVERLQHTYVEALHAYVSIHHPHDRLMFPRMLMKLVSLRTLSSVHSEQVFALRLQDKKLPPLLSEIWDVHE

VP16 = experiment: Gal4 DBD-VP16 / UAS luciferase control assay; format: cell-based; details: 10 μM
Experimental: as §1

GST-RORγ = target: T4, GST-RORγ (Homo sapiens, UniProt P51449); experiment: RORγ scintillation proximity (SPA) radioligand binding assay, displacement of [3H]-T0901317; details: 1 μM compound (Table 2D); read-out: RORγ SPA % bound = % radiolabel bound
T4 construct: 1 μg of GST-RORγ-LBD, 5 nM of [3H]T1317 as radioligand
T4 sequence (P51449 269-508 limits assumed): T2 sequence (P51449 269-508 limits assumed)

SMILES	RORα repression, fold change over DMSO (RORα)	RORγ repression, fold change over DMSO (RORγ)	LXR activation, fold change over DMSO (LXR)	VP16 repression, fold change over DMSO (VP16)	remaining activity at 1 µM (GST-RORγ)
OCCN1CCN(Cc2ccc(-c3ccc(C(O)(C(F)(F)F)C(F)(F)F)cc3)cc2)CC1 [Compound 2, 1,1,1,3,3,3-Hexafluoro-2-(4′-((4-(2-hydroxyethyl)piperazin-1-yl)methyl)-[1,1′-biphenyl]-4-yl)propan-2-ol]	1.3 fold change over DMSO	0.9 fold change over DMSO	1.1 fold change over DMSO	0.9 fold change over DMSO	
OC(c1ccc(-c2ccc(CN3CCN(CCc4ccccc4)CC3)cc2)cc1)(C(F)(F)F)C(F)(F)F [Compound 11, 1,1,1,3,3,3-Hexafluoro-2-(4′-((4-phenethylpiperazin-1-yl)methyl)-[1,1′-biphenyl]-4-yl)propan-2-ol]	0.5 fold change over DMSO	0.5 fold change over DMSO	1 fold change over DMSO	0.35 fold change over DMSO	
OC(c1ccc(-c2ccc(CN3CCN(c4ccccc4)CC3)cc2)cc1)(C(F)(F)F)C(F)(F)F [Compound 14, 1,1,1,3,3,3-Hexafluoro-2-(4′-((4-phenylpiperazin-1-yl)methyl)-[1,1′-biphenyl]-4-yl)propan-2-ol]	0.4 fold change over DMSO	0.05 fold change over DMSO	5 fold change over DMSO	0.4 fold change over DMSO	
CCCCC(=O)N1CCN(Cc2ccc(-c3ccc(C(O)(C(F)(F)F)C(F)(F)F)cc3)cc2)CC1 [Example 158, 1-(4-((4′-(1,1,1,3,3,3-hexafluoro-2-hydroxypropan-2-yl)-[1,1′-biphenyl]-4-yl)methyl)piperazin-1-yl)pentan-1-one]					10%
O=C(Cc1c[nH]cn1)N1CCN(Cc2ccc(-c3ccc(C(O)(C(F)(F)F)C(F)(F)F)cc3)cc2)CC1 [Example 159, 1-(4-((4′-(1,1,1,3,3,3-hexafluoro-2-hydroxypropan-2-yl)-[1,1′-biphenyl]-4-yl)methyl)piperazin-1-yl)-2-(1H-imidazol-4-yl)ethanone]					80%
OC(c1ccc(-c2ccc(CN3CCN(Cc4ccncc4)CC3)cc2C(F)(F)F)cc1)(C(F)(F)F)C(F)(F)F [Example 160, 1,1,1,33,33-hexafluoro-2-(4′-((4-(pyridin-4-ylmethyl)piperazin-1-yl)methyl)-2′-(trifluoromethyl)-[1,1′-biphenyl]-4-yl)propan-2-ol]					77%
N#Cc1cc(-c2ccc(C(O)(C(F)(F)F)C(F)(F)F)cc2)ccc1CN1CCN(Cc2ccncc2)CC1 [Example 161, 4′-(1,1,1,3,3,3-hexafluoro-2-hydroxypropan-2-yl)-4-((4-(pyridin-4-ylmethyl)piperazin-1-yl)methyl)-[1,1′-biphenyl]-3-carbonitrile]					95%
OC(c1ccc(-c2ccc3c(c2)CCN3C2CCN(Cc3ccncc3)CC2)cc1)(C(F)(F)F)C(F)(F)F [Example 162, 1,1,1,3,3,3-hexafluoro-2-(4-(1-(1-(pyridin-4-ylmethyl)piperidin-4-yl)indolin-5-yl)phenyl)propan-2-ol]					15%
OC(c1ccc(-c2cccc(CC3CCCN(Cc4ccncc4)C3)c2)cc1)(C(F)(F)F)C(F)(F)F (stereo not shown) [Example 163, 1,1,1,3,3,3-hexafluoro-2-(3′-((1-(pyridin-4-ylmethyl)piperidin-3-yl)methyl)-[1,1′-biphenyl]-4-yl)propan-2-ol]					10%
OC(c1ccc(-c2ccc(CC3CCN(Cc4ccncc4)CC3)cc2)cc1)(C(F)(F)F)C(F)(F)F [Example 164, 1,1,1,3,3,3-hexafluoro-2-(4′-((1-(pyridin-4-ylmethyl)piperidin-4-yl)methyl)-[1,1′-biphenyl]-4-yl)propan-2-ol]					10%
